{"source": "the OPERA property sets (Mansouri et al. 2018)", "note": "Where a SMILES comes first, the peptide text is derived from it.", "data": [{"smiles": "C[C@H](NC(=O)c1ccccc1)C(=O)O", "note": "(racemic)", "values": [{"measurement": "solubility", "result": 20.7, "unit": "mM"}]}, {"smiles": "CCCCOCCC(=O)OC", "values": [{"measurement": "solubility", "setting": "25 °C", "result": 51.2, "unit": "mM"}]}, {"smiles": "NNC(=O)c1nccs1", "values": [{"measurement": "solubility", "result": 210, "unit": "mM"}]}, {"smiles": "O=C1CCCCCN1C(=O)c1ccccc1", "values": [{"measurement": "solubility", "setting": "20 °C", "result": 6.81, "unit": "mM"}]}, {"smiles": "CC(C)(OC1CCCCC1)C(=O)O", "values": [{"measurement": "solubility", "setting": "20 °C", "result": 83.2, "unit": "mM"}]}, {"smiles": "O=C(O)[C@@H]1CC[C@H](C(=O)O)SS1", "values": [{"measurement": "solubility", "setting": "25 °C", "result": 44.9, "unit": "mM"}]}, {"smiles": "O=C1CNC(=S)N1c1ccccc1", "values": [{"measurement": "solubility", "setting": "25 °C", "result": 0.572, "unit": "mM"}]}, {"smiles": "CCCC(N)C(=O)O", "note": "(racemic)", "values": [{"measurement": "solubility", "setting": "23 °C", "result": 805, "unit": "mM"}]}, {"smiles": "O=S(=O)(CCCl)CCCl", "values": [{"measurement": "solubility", "setting": "20 °C", "result": 31.4, "unit": "mM"}]}, {"smiles": "O=c1ncc2[nH]cnc2[nH]1", "values": [{"measurement": "solubility", "setting": "20 °C", "result": 19.3, "unit": "mM"}]}, {"smiles": "O=C(O)CCCNC(=O)c1ccccc1", "values": [{"measurement": "solubility", "result": 62.7, "unit": "mM"}]}, {"smiles": "CCOC(=O)C(CC(=O)O)=C(c1ccccc1)c1ccccc1", "values": [{"measurement": "solubility", "result": 6.44, "unit": "mM"}]}, {"smiles": "CC(C)[C@@H](O)C#N", "values": [{"measurement": "solubility", "setting": "25 °C", "result": 2020, "unit": "mM"}]}, {"smiles": "O=C(O)CCCCCCNS(=O)(=O)c1ccccc1", "values": [{"measurement": "solubility", "setting": "25 °C", "result": 8.97, "unit": "mM"}]}, {"smiles": "CC(C)CC(=O)Oc1ccc([N+](=O)[O-])cc1", "values": [{"measurement": "solubility", "setting": "25 °C", "result": 0.0403, "unit": "mM"}]}, {"smiles": "CS(=O)(=O)NS(C)(=O)=O", "values": [{"measurement": "solubility", "setting": "30 °C", "result": 1100, "unit": "mM"}]}, {"smiles": "ON=C1CCCCC1", "values": [{"measurement": "solubility", "setting": "25 °C", "result": 159, "unit": "mM"}]}, {"smiles": "O=C1C(=O)c2ccccc2-c2ccccc21", "values": [{"measurement": "solubility", "setting": "25 °C", "result": 0.036, "unit": "mM"}]}, {"smiles": "COCCOC(=O)CCCCC(=O)OCCOC", "values": [{"measurement": "solubility", "result": 54.1, "unit": "mM"}]}, {"smiles": "Cc1ccc2[nH]c(=O)c(=O)[nH]c2c1", "values": [{"measurement": "solubility", "setting": "20 °C", "result": 0.908, "unit": "mM"}]}, {"smiles": "CCCCC(CC)COC(=O)NS(N)(=O)=O", "note": "(configuration not stated)", "values": [{"measurement": "solubility", "setting": "25 °C", "result": 3.96, "unit": "mM"}]}, {"smiles": "OCc1ccccc1Br", "values": [{"measurement": "solubility", "setting": "20 °C", "result": 6.95, "unit": "mM"}]}, {"smiles": "CCCCCCCOC(=O)c1ccc(O)cc1", "values": [{"measurement": "solubility", "setting": "30 °C", "result": 0.0846, "unit": "mM"}]}, {"smiles": "CC(C)CC1OCCO1", "values": [{"measurement": "solubility", "result": 427, "unit": "mM"}]}, {"smiles": "O=C(O)c1cc(Cl)ccc1O", "values": [{"measurement": "solubility", "setting": "20 °C", "result": 57.9, "unit": "mM"}]}, {"smiles": "CCCOC(=O)CCOC", "values": [{"measurement": "solubility", "setting": "25 °C", "result": 219, "unit": "mM"}]}, {"smiles": "Oc1cnc2ccccc2c1", "values": [{"measurement": "solubility", "setting": "20 °C", "result": 4.05, "unit": "mM"}]}, {"smiles": "Cc1cc(C)c(C)c(C)n1", "values": [{"measurement": "solubility", "result": 49.3, "unit": "mM"}]}, {"smiles": "COc1nsc(N)n1", "values": [{"measurement": "solubility", "setting": "20 °C", "result": 57.2, "unit": "mM"}]}, {"smiles": "CCC(C)(C)C1CCC(=NO)C(=NO)C1", "note": "(configuration not stated)", "values": [{"measurement": "solubility", "setting": "25 °C", "result": 0.108, "unit": "mM"}]}, {"smiles": "Nc1c(Br)cc(Br)c(S(=O)(=O)O)c1Br", "values": [{"measurement": "solubility", "setting": "22 °C", "result": 324, "unit": "mM"}]}, {"smiles": "CC(C)C[C@H](N)C(=O)N[C@@H](C)C(=O)NCC(=O)O", "note": "(H-Leu-Ala-Gly-OH)", "values": [{"measurement": "solubility", "result": 127, "unit": "mM"}]}, {"smiles": "O=C(OCCCO)c1ccccc1", "values": [{"measurement": "solubility", "result": 55.5, "unit": "mM"}]}, {"smiles": "Nc1ccc2snnc2c1", "values": [{"measurement": "solubility", "result": 49.6, "unit": "mM"}]}, {"smiles": "CCCCCS", "values": [{"measurement": "solubility", "setting": "20 °C", "result": 1.5, "unit": "mM"}]}, {"smiles": "NC(CS(=O)(=O)c1ccc(Cl)cc1)C(=O)O", "note": "(configuration not stated)", "values": [{"measurement": "solubility", "result": 2.93, "unit": "mM"}]}, {"smiles": "O=C(c1ccccc1I)N(O)c1ccccc1", "values": [{"measurement": "solubility", "result": 0.295, "unit": "mM"}]}, {"smiles": "Nc1nc(N)nc(Cl)n1", "values": [{"measurement": "solubility", "setting": "20 °C", "result": 4.12, "unit": "mM"}]}, {"smiles": "CCN(CC)C(C#N)c1ccccc1", "note": "(configuration not stated)", "values": [{"measurement": "solubility", "setting": "30 °C", "result": 106, "unit": "mM"}]}, {"smiles": "ON=C1C=CC(=NO)c2ncccc21", "values": [{"measurement": "solubility", "setting": "25 °C", "result": 0.159, "unit": "mM"}]}, {"smiles": "COC1CC1", "values": [{"measurement": "solubility", "setting": "25 °C", "result": 763, "unit": "mM"}]}, {"smiles": "CCCCCCCCNC(=O)c1cccnc1", "values": [{"measurement": "solubility", "setting": "25 °C", "result": 0.982, "unit": "mM"}]}]}
